Test results as given in PubChem BioAssay (NCI).
Several values for one entry are separate records, joined by “and”; a condition that tells them apart may be missing. Equal entries are not always repeated.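 Following 48 hours of exposure in 96-well plates, responses at five concentrations were used to interpolate endpoints linearly. GI50 = concentration required for 50% inhibition of growth. At the TGI there is no net growth.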

Experiments:
Assay in all cases: NCI tumour cell line growth inhibition, 48 h
[1] = tested on: CCRF-CEM leukemia
[2] = tested on: HCC-2998 colon
[3] = tested on: HOP-62 NSCLC
[4] = tested on: NCI-H522 lung
[5] = tested on: PC-3 prostate
[6] = tested on: SF-268 CNS
[7] = tested on: SK-MEL-28 melanoma
[8] = tested on: TK-10 renal
[9] = tested on: U251 CNS
[10] = tested on: UACC-62 melanoma

Compound	GI50 [1]	TGI [1]	GI50 [2]	TGI [2]	GI50 [3]	TGI [3]	GI50 [4] [nM]	GI50 [5]	TGI [5]	GI50 [6]	TGI [6]	GI50 [7] [nM]	TGI [7]	GI50 [8]	TGI [8]	GI50 [9] [nM]	TGI [9]	GI50 [10]	TGI [10]	TGI [4]
COc1cc([C@@H]2c3cc4c(cc3[C@H](SC(=N)N)[C@H]3COC(=O)[C@H]23)OCO4)cc(OC)c1OC	299 nM	> 100 µM	338 nM	> 100 µM	419 nM	> 100 µM	125	381 nM	> 100 µM	421 nM	> 100 µM	14400	> 100 µM	2480 nM	> 78.9 µM	311	> 100 µM	1640 nM	> 100 µM	
Nc1nc(Cl)c2ncn(Cc3ccc(C45CC6CC(CC(C6)C4)C5)c(OCc4cc(F)c(F)cc4F)c3)c2n1	1660 nM	4.16 µM	2480 nM	5.58 µM	3230 nM	10.8 µM	2800	1000 nM	3.98 µM	3010 nM	15.2 µM	8120	26.3 µM	2880 nM	10.3 µM	3040	16.3 µM	1640 nM	12.6 µM	12.3 µM
CN(C)CCCOc1ccc(NC2=C(Cl)C(=O)C(Nc3ccc(OCCCN(C)C)cc3)=C(Cl)C2=O)cc1	272 nM	2.95 µM	769 nM	2.09 µM	1830 nM	3.31 µM	236	1230 nM	2.76 µM	1560 nM	3.17 µM	1740	3.16 µM	1990 nM	3.41 µM	1530	2.94 µM	1610 nM	3.09 µM	0.602 µM
CC(=O)Nc1cccc(C#Cc2cncnc2Nc2ccc(OCc3cccc(F)c3)c(Cl)c2)c1	10200 nM	> 25 µM	7940 nM	> 25 µM	> 19800 nM	> 25 µM	4470	8490 nM	> 25 µM	16600 nM	> 25 µM	17100	> 25 µM	1600 nM	16.3 µM	11800	> 25 µM	8880 nM	> 25 µM	23.9 µM
C/C(=C/CCC(C)[C@@H]1CC[C@]2(C)C3=C(CC[C@@]12C)[C@@]1(C)CCC(=O)C(C)(C)[C@@H]1CC3)C(=O)O (some centres not stated)	708 nM	2.5 µM	1100 nM	2.44 µM	1990 nM	3.57 µM	728	1120 nM	2.51 µM	1470 nM	3.08 µM	1420	2.82 µM	1450 nM	2.83 µM	817	2.29 µM	469 nM	1.76 µM	2.21 µM
C/C(=N\NC(=S)N1CCC1)c1ccccn1	6.58 nM		11.3 nM	26.8 µM	22.3 nM	> 33.9 µM	9.76		> 100 µM	5.57 nM	> 100 µM		> 56 µM	3.75 nM	> 79.3 µM	7.25	> 82.6 µM		7.36 µM	> 45.9 µM
C#COc1cccc(Nc2ncnc3cc(NC(=O)[C@@H](C)Cl)ccc23)c1	7450 nM	> 62.5 µM	13900 nM	> 62.5 µM	8180 nM	> 62.5 µM	3960	11700 nM	> 62.5 µM	16900 nM	> 62.5 µM	14000	> 62.5 µM	36500 nM	> 62.5 µM	7290	> 62.5 µM	5480 nM	> 62.5 µM	40.8 µM
CCc1ccc(Oc2c(-c3ccc(OCc4ccc(Cl)cc4)cc3O)nn(C)c2C(F)(F)F)cc1	454 nM	4.82 µM	2440 nM	9.62 µM	1340 nM	2.83 µM	303	358 nM	1.68 µM	1250 nM	2.9 µM	1260	2.91 µM	1230 nM	3.18 µM	357	1.36 µM	516 nM	2.25 µM	1.94 µM
COc1ccc(-c2cnc(-c3ccncc3-c3cccc(OC)c3)o2)cc1	38.9 nM	16 µM	79.9 nM	14.3 µM	53.1 nM	23.8 µM	19	37.9 nM	16.9 µM	78.3 nM	16.9 µM	63.9	17.8 µM	11700 nM	42.1 µM	38.7	13.4 µM	50.8 nM	15.5 µM	0.0615 µM
OCCNc1nc2ccccc2c2[nH]c3ccccc3c12	654 nM	10.7 µM	527 nM	1.71 µM	583 nM	6.66 µM	360	1100 nM	16.9 µM	519 nM	3.42 µM	1040	2.55 µM	744 nM	5.16 µM	661	4.31 µM	1360 nM	6.52 µM	1.73 µM
Nc1c(C(=O)Nc2ccccc2)sc2nc3c(cc12)C(=O)CCC3	374 nM	> 100 µM	1200 nM	> 100 µM	745 nM	> 100 µM	215	389 nM	> 100 µM	1020 nM	> 100 µM	710	> 100 µM	807 nM	> 100 µM	486	> 41.9 µM	557 nM	> 100 µM	1.29 µM
Cc1ccc(C(=O)Nc2ccc(Oc3cc4cnn(C)c4cc3-c3cn[nH]c3)c(F)c2)c(=O)n1-c1ccc(F)cc1	> 100000 nM	> 100 µM	> 100000 nM	> 100 µM	> 37900 nM	> 100 µM	32000	16300 nM	> 100 µM	7210 nM	> 100 µM	3540	> 100 µM	1950 nM	35.1 µM	32900	> 100 µM	2080 nM	> 100 µM	> 100 µM
CN(C)CCNC(=O)Nc1ccc(N(C)c2ccnc(Nc3ccc(CS(C)(=O)=O)cc3)n2)cc1	16500 nM	> 25 µM	> 25000 nM	> 25 µM	> 25000 nM	> 25 µM	> 16900	> 25000 nM	> 25 µM	> 25000 nM	> 25 µM	> 25000	> 25 µM	> 25000 nM	> 25 µM	> 25000	> 25 µM	> 25000 nM	> 25 µM	> 25 µM
CCN1C(=O)N(CC)C2C1NC(=S)N2/N=C/C=C/c1ccccc1 (configuration not stated)	128 nM	> 100 µM	328 nM	> 58.6 µM		> 100 µM	48.6	73.4 nM	> 100 µM	320 nM	> 100 µM	1910	> 100 µM	3660 nM	> 100 µM	302	> 100 µM	43.9 nM	> 100 µM	4.45 µM
NC(=O)c1nc(-c2c(F)cccc2Cl)oc1Nc1ccc(C(=O)N2CCOCC2)cc1	400 nM	> 100 µM	14800 nM	> 100 µM	2080 nM	> 100 µM	2110	7830 nM	> 100 µM	3070 nM	> 100 µM	13900	> 100 µM	2330 nM	34.2 µM	2250	> 100 µM			57.1 µM
CC[n+]1c(-c2ccccc2)c2cc(N)ccc2c2ccc(N)cc21	2150 nM and 1200 nM and 4940 nM	77 µM and 33 µM and 48.3 µM	1220 nM	3.31 µM and 16.5 µM and 19.8 µM	863 nM and 7400 nM and 2380 nM			1970 nM	17.5 µM and 26.5 µM	281 nM and 589 nM and 1260 nM	2.44 µM and 11.9 µM and 16.9 µM	607	2.12 µM and 8.02 µM	2380 nM	19.7 µM and 68.8 µM	399	10.2 µM and 20.7 µM	578 nM	2.4 µM and 3.61 µM	2.54 µM and 8.58 µM and 23.2 µM
N#CN1CC[C@H](C(=O)Nc2ncc(-c3ccccc3)s2)C1	271 nM	> 100 µM	1090 nM	2.58 µM	1370 nM	4.21 µM	205	706 nM	2.97 µM	789 nM	4.23 µM	1090	3.01 µM	1190 nM	2.99 µM	545	5.15 µM	371 nM	2.18 µM	0.547 µM
Cc1ccc2ccc3c4ccccc4ccc3c2c1	22000 nM	52.4 µM	20800 nM	43.2 µM	38000 nM	> 100 µM	19100	30400 nM	> 100 µM	32100 nM	> 100 µM	39400	> 100 µM	28500 nM	67.8 µM	28300	> 100 µM	21800 nM	> 100 µM	51.7 µM
O=C1c2cccc3c(N4CCOCC4)ccc(c23)C(=O)N1CCN1CCN(CCCCCN2CCN(CCN3C(=O)c4cccc5c(N6CCOCC6)ccc(c45)C3=O)CC2)CC1	32900 nM	> 100 µM	17500 nM	65.5 µM	52300 nM	> 100 µM		> 100000 nM	> 100 µM	> 100000 nM	> 100 µM	> 100000	> 100 µM	> 100000 nM	> 100 µM	> 100000	> 100 µM	77600 nM	> 100 µM	
CCN(CC)CCCC(Nc1c2ccc(Cl)cc2nc2ccc(OC)cc12)c1ccc(Cl)cc1 (configuration not stated)	530 nM	2.07 µM	1470 nM	3.01 µM	1610 nM	3.14 µM	1460	1550 nM	3.04 µM	1430 nM	3.05 µM	1340	2.9 µM	1620 nM	3.14 µM	579	1.83 µM			3.09 µM
CO[C@H]1C(=O)[C@]2(C)[C@@H](OC)C[C@H]3OC[C@@]3(OC(C)=O)[C@H]2[C@H](OC(=O)c2ccccc2)[C@]2(O)C[C@H](OC(=O)[C@H](O)[C@@H](NC(=O)OC(C)(C)C)c3ccccc3)C(C)=C1C2(C)C	< 10 nM	42.3 µM	< 10 nM	< 0.0168 µM	< 10 nM	> 80.4 µM		< 10 nM	> 77.8 µM	< 10 nM	68.6 µM		39.8 µM	< 10 nM	31.3 µM	< 10	23.8 µM	< 14.7 nM	56.8 µM	
O=c1[nH]c2ccccc2cc1-c1nnc(Cc2ccccc2)o1	1700 nM	7.79 µM	12700 nM	27.5 µM	12600 nM	34.3 µM	2270	4160 nM	70.6 µM	10700 nM	42 µM			5230 nM	16 µM	4120	14.9 µM	3430 nM	15.6 µM	5.9 µM
CCN(CC)CCNc1n[n+]([O-])c2cc([N+](=O)[O-])ccc2[n+]1[O-]	263 nM and 111 nM and 138 nM	1.1 µM and 0.841 µM and 0.999 µM	206 nM and 287 nM and 120 nM	1.53 µM and 2.01 µM and 0.57 µM		2.2 µM and 1.2 µM and 1.54 µM		1090 nM and 351 nM and 360 nM	9.4 µM and 4.92 µM and 4.59 µM		8.56 µM and 4.92 µM and 5.23 µM		22.4 µM and 22.8 µM and 14.5 µM	2800 nM and 1420 nM and 1210 nM	14.7 µM and 8.94 µM and 5.88 µM		3.1 µM and 2.73 µM and 2.78 µM	532 nM and 309 nM and 244 nM	2.11 µM and 1.56 µM and 1.5 µM	
COc1cccc(-c2cc(=O)c3cc(N4CCN(C)CC4)ccc3[nH]2)c1	598 nM	5.89 µM	1150 nM	4.71 µM and 3.88 µM	10700 nM	> 100 µM	1020	1550 nM	> 100 µM	4280 nM	> 100 µM	3990	> 100 µM	13500 nM	94.6 µM			1460 nM	> 100 µM	4.28 µM and 3.79 µM
COc1ccc(N(CC(=O)O)N=O)cc1		> 100 µM				> 100 µM			> 100 µM		> 100 µM		> 100 µM		> 100 µM		> 100 µM		> 100 µM	> 100 µM
